Data: PubChem BioAssay (NCI)
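Briefly, cells in 96-well plates were exposed to five compound concentrations for 48 h, and endpoints were estimated by linear interpolation. Abbreviation: GI50, concentration required for 50% inhibition of growth. TGI: concentration producing complete growth inhibition.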

How the values were obtained:
Assay in all cases: NCI tumour cell line growth inhibition, 48 h
IGROV1 ovarian = system: IGROV1 ovarian
NCI-H23 lung = system: NCI-H23 lung
UO-31 renal = system: UO-31 renal
NCI-H460 lung = system: NCI-H460 lung
SN12C renal = system: SN12C renal
OVCAR-8 ovarian = system: OVCAR-8 ovarian
SK-MEL-5 melanoma = system: SK-MEL-5 melanoma
HT29 colon = system: HT29 colon
RPMI-8226 leukemia = system: RPMI-8226 leukemia
SW-620 colon = system: SW-620 colon

Row | SMILES | GI50 (IGROV1 ovarian) [µM] | TGI (IGROV1 ovarian) [µM] | GI50 (NCI-H23 lung) [µM] | TGI (NCI-H23 lung) [µM] | GI50 (UO-31 renal) [µM] | TGI (UO-31 renal) [µM] | GI50 (NCI-H460 lung) [µM] | TGI (NCI-H460 lung) [µM] | GI50 (SN12C renal) [µM] | TGI (SN12C renal) [µM] | GI50 (OVCAR-8 ovarian) [µM] | TGI (OVCAR-8 ovarian) [µM] | GI50 (SK-MEL-5 melanoma) [µM] | TGI (SK-MEL-5 melanoma) [µM] | GI50 (HT29 colon) [µM] | TGI (HT29 colon) [µM] | GI50 (RPMI-8226 leukemia) [µM] | TGI (RPMI-8226 leukemia) [µM] | GI50 (SW-620 colon) [µM] | TGI (SW-620 colon) [µM]
1 | O=C1C(=C([O-])c2ccccc2)C(=O)c2ccccc21.O=C1C(=C([O-])c2ccccc2)C(=O)c2ccccc21.[Ni+2] | 48.2 | > 100 | 37.4 | > 100 | 27.2 | > 100 | 33.9 | > 100 | 51.3 | > 100 | 48.1 | > 100 | 18.2 | 54.9 | 77 | > 100 | > 100 | > 100 | 58.9 | > 100
2 | COc1cc(O)c(Cc2ccccc2O)c(O)c1C(=O)CCc1ccccc1 |  | 29.8 |  | 12 |  | 23.4 |  | 12.2 |  | 17 |  | 28.1 |  | 9.36 |  | 33.4 |  | 9.8 |  | 29.4
3 | COC(=O)c1c(O)ccc2c1c1c(n2Cc2cccc(C)c2)C(=O)c2ccccc2C1 |  | > 75 |  | > 75 |  | > 75 |  | > 75 |  | 27.6 |  | > 75 |  | > 75 |  | 19.9 |  | 31 |  | > 75
